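The compound was tested at five concentrations on cells cultured in 96-well plates, with a 48-hour exposure period. GI50 is the concentration that inhibits growth by half. TGI: concentration producing complete growth inhibition.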
Legend:
Experiment in all cases: NCI-60 cell line screen, 48 h
HOP-92 NSCLC = system: HOP-92 NSCLC
KM12 colon = system: KM12 colon
LOX IMVI melanoma = system: LOX IMVI melanoma
SF-268 CNS = system: SF-268 CNS
SF-539 CNS = system: SF-539 CNS
SK-MEL-2 melanoma = system: SK-MEL-2 melanoma
SK-MEL-28 melanoma = system: SK-MEL-28 melanoma
SNB-19 CNS = system: SNB-19 CNS
A498 renal = system: A498 renal
SR leukemia = system: SR leukemia

SMILES | TGI (HOP-92 NSCLC) | TGI (KM12 colon) | TGI (LOX IMVI melanoma) | TGI (SF-268 CNS) | TGI (SF-539 CNS) | TGI (SK-MEL-2 melanoma) | TGI (SK-MEL-28 melanoma) | TGI (SNB-19 CNS) | GI50 (A498 renal) | TGI (A498 renal) | GI50 (HOP-92 NSCLC) | GI50 (KM12 colon) | GI50 (LOX IMVI melanoma) | GI50 (SF-268 CNS) | GI50 (SF-539 CNS) | GI50 (SK-MEL-2 melanoma) | GI50 (SK-MEL-28 melanoma) | GI50 (SNB-19 CNS) | GI50 (SR leukemia) | TGI (SR leukemia)
NCCO/C=C/C(N)C(=O)O (stereo unspecified) | > 100 µM | > 100 µM | > 100 µM | > 100 µM | > 100 µM | > 100 µM | > 100 µM | > 100 µM |  |  |  |  |  |  |  |  |  |  |  | 
CCOC(=O)Nc1ccc2nc(-c3cscn3)[nH]c2c1 | > 100 µM | > 100 µM | > 100 µM | > 100 µM | 20.6 µM | > 100 µM | > 100 µM | > 100 µM | 3.5 µM | 21 µM | > 26.2 µM | 2.05 µM | 5.18 µM | 18 µM | 3.32 µM | 3.25 µM | 7.23 µM | 5.73 µM |  | 
N/N=C(/Cc1ccccc1)NNO | > 100 µM | 34.9 µM | > 100 µM | > 100 µM | > 100 µM | > 100 µM | > 100 µM | > 100 µM |  | > 100 µM |  |  |  |  |  |  |  |  |  | 
Cc1ccc(C2=CC(=O)c3ccccc3C2=O)n1-c1ccccc1 |  | > 100 µM | > 100 µM | > 100 µM | > 100 µM |  | > 100 µM | > 100 µM |  |  |  |  |  |  |  |  |  |  |  | 
COc1cc2c(cc1C)NC(=O)/C2=C/c1ccnc2ccccc12 | > 50 µM | > 50 µM |  | > 50 µM | > 50 µM | > 50 µM | 46.8 µM | 36.3 µM |  |  | 12.4 µM | 26.2 µM |  | 18 µM | 20.8 µM | 26.3 µM | 11.2 µM | 6.88 µM | 8.47 µM | > 50 µM
COc1cc2c(/C=C3\C(=O)Nc4ccccc43)c[nH]c2cc1C | 22.3 µM | 0.824 µM | 4.19 µM | > 100 µM | < 0.0243 µM | > 63.4 µM | 20.3 µM | 32.3 µM | < 0.0243 µM | 16.5 µM | 1.54 µM | 0.239 µM | 0.652 µM | 0.861 µM | < 0.0138 µM | 17.7 µM | 0.021 µM | 0.112 µM |  | 
O=C1/C(=C/c2ccccc2)Oc2cc(O)ccc21 |  | > 100 µM |  | > 100 µM | > 100 µM |  | > 100 µM | > 100 µM |  |  |  |  |  |  |  |  |  |  |  | > 100 µM
COc1cc2c(cc1OCCNC(=O)/C=C1\C[C@H]3C=Nc4cc(OCc5ccccc5)c(OC)cc4C(=O)N3C1)N=C[C@@H]1CCCN1C2=O |  | 28.8 µM | 7.31 µM | 7.03 µM |  | 3.56 µM | 46.3 µM | > 100 µM |  |  |  | 9.31 µM | 2.75 µM | 2.18 µM |  | 1.58 µM | 18.1 µM | 8.62 µM | 1.46 µM | 4.56 µM
C1=CC(=P(c2ccccc2)(c2ccccc2)c2ccccc2)C=C1 | 22.8 µM | 24.4 µM | 24.6 µM | 75.1 µM | 29.1 µM | 30.3 µM | 19.6 µM | 31.6 µM |  |  |  |  |  |  |  |  |  |  |  | 
CCCCCCCC/C=C/CCCCCCCC1=NC(C)(C)CN1C(C)(C)CO |  | 3.45 µM | 2.98 µM | 3.84 µM | 3.34 µM | 3.67 µM | 3.18 µM | 6.55 µM | 11.5 µM | 25.7 µM |  | 1.97 µM | 1.61 µM | 2.01 µM | 1.68 µM | 1.76 µM | 1.79 µM | 2.39 µM |  | 
O=C1CC23CCCCCCCCCCC2(C1)CC(=O)C3 (stereo unspecified) | 51.8 µM | 45 µM |  | > 100 µM | > 100 µM | 42.9 µM | > 100 µM | 76.3 µM |  |  |  |  |  |  |  |  |  |  |  | 56.5 µM
O=C(Nc1ccc(Cl)cc1C(F)(F)F)C(=O)Nn1c(=S)[nH]c2ccccc2c1=O | > 100 µM | > 100 µM | > 100 µM | > 100 µM | > 100 µM | > 100 µM | > 100 µM |  |  | > 100 µM |  |  |  |  |  |  |  |  |  | 
COc1c2ccoc2nc2c(OC)c(OCC(O)C(C)(C)O)ccc12 (stereo unspecified) | > 100 µM | > 100 µM | > 100 µM | > 100 µM | > 100 µM | > 100 µM | > 100 µM | > 100 µM |  | > 100 µM |  |  |  |  |  |  |  |  |  | 
CC(C)C[C@@H](N)[C@@H](O)C(=O)N[C@H](C(=O)N[C@H](C(=O)N[C@@H](CC(=O)O)C(=O)O)C(C)C)C(C)C | > 20 µM | > 20 µM | > 20 µM | > 20 µM | > 20 µM | > 20 µM | > 20 µM | > 20 µM | > 20 µM | > 20 µM | 10.3 µM | > 20 µM | > 20 µM | > 20 µM | > 20 µM | > 20 µM | > 20 µM | > 20 µM |  | 
Cc1cccc(C)c1NC(=O)C(=O)Cc1nc2ccccc2s1 | > 100 µM | > 100 µM | > 100 µM | > 100 µM | > 100 µM | > 100 µM | > 100 µM | > 100 µM |  | > 100 µM |  |  |  |  |  |  |  |  |  | 
COc1ccc2c(c1)C(=O)c1c-2c(OCCCN(C)C)nc2cc(Br)ccc12 | 20.4 µM | 24.3 µM | 23.7 µM | 10.4 µM | 3.16 µM | 36.3 µM | 3.74 µM | 11.8 µM | 7.31 µM | 20.5 µM | 6.12 µM | 11.4 µM | 11.3 µM | 2.5 µM | 1.69 µM | 19.1 µM | 1.87 µM | 3.08 µM |  | 
CCC[CH2][Sn-]([CH2]CCC)([CH2]CCC)[O]C(=O)C(C)C | 0.162 µM | 0.145 µM | 0.215 µM | 0.333 µM | 0.296 µM | 0.411 µM | 0.329 µM | 0.351 µM | 0.153 µM | 0.286 µM | 0.037 µM | 0.0347 µM | 0.0816 µM | 0.144 µM | 0.157 µM | 0.189 µM | 0.182 µM | 0.186 µM |  | 
Cc1nnc2n1N=C(c1ccccc1)C(c1ccccc1)S2 (stereo unspecified) | > 100 µM | > 100 µM | > 100 µM | > 100 µM | 72.4 µM | > 100 µM |  | > 100 µM |  | > 100 µM |  |  |  |  |  |  |  |  |  | 
CC1=NN(c2cccc(Cl)c2)C(=O)/C1=C\c1cn(CC(O)CN2CCCCC2)c2ccccc12 (stereo unspecified) | 38 µM | 8.26 µM |  | 24.9 µM | 26.6 µM | 24.7 µM | 3.47 µM | 53.7 µM | 14.6 µM | 41.6 µM | 14.8 µM | 2.92 µM |  | 10.1 µM | 10.2 µM | 10.3 µM | 1.82 µM | 16.8 µM |  | 
Cn1c(=O)oc2cc(C3CCC(=O)N3Cc3csc(-c4ccccc4)n3)ccc21 (stereo unspecified) |  | > 100 µM | > 100 µM | > 100 µM | > 100 µM | > 100 µM | > 100 µM | > 100 µM |  |  |  |  |  |  |  |  |  |  |  | > 100 µM
COc1cc(O)ccc1C(=S)SC | > 100 µM | > 100 µM |  | > 100 µM | > 100 µM | > 100 µM | > 100 µM | > 100 µM |  |  |  |  |  |  |  |  |  |  |  | > 100 µM
c1cnc2c(c1)-n1cccc1C1(CCCCC1)NN2 |  | > 100 µM | > 100 µM | > 100 µM | > 100 µM | > 100 µM | > 100 µM | > 100 µM |  |  |  |  |  |  |  |  |  |  |  | > 100 µM
Cc1cc2c(c(C(=O)O)c1C)-c1cccc(Cl)c1C2=O |  | > 100 µM | > 100 µM | > 100 µM |  | > 100 µM | > 100 µM | > 100 µM |  |  |  |  |  |  |  |  |  |  |  | 
CN1CCCC2[C@@H]3CCC4c5nonc5CC[C@]4(C)C3CC[C@@]21C (stereo partly specified) |  | > 100 µM |  |  | > 100 µM | > 100 µM | > 100 µM | > 100 µM |  |  |  |  |  |  |  |  |  |  |  | > 100 µM
CCN(CC)C(=S)SSC(C)C | 36.1 µM |  | 24.1 µM | 37 µM | 42.9 µM | 62 µM | 23.1 µM | > 100 µM |  |  | 15.2 µM |  | 4.67 µM | 16.2 µM | 18.4 µM | 23.3 µM | 11.1 µM | 31.8 µM |  | 
Cn1c(COC(=O)NCCn2ccnc2)nc2c(N3CCOCC3)nc(-c3ccccc3)nc21 | 1.72 µM | 3.06 µM | 0.314 µM | 2.66 µM | 2.4 µM | 3.3 µM | 2.62 µM | 2.69 µM | 1.25 µM | 2.53 µM | 0.343 µM | 1.43 µM | 0.152 µM | 1.29 µM | 1.17 µM | 1.68 µM | 1.33 µM | 1.38 µM |  | 
Cc1ccccc1NC(=O)CSc1nnc(-c2ccc(N=Cc3ccc(Cl)cc3)cc2)o1 |  | > 100 µM | > 100 µM | > 100 µM |  | > 100 µM | > 100 µM | > 100 µM |  |  |  |  |  |  |  |  |  |  |  | > 100 µM
Cc1cccc(N2C(=O)/C(=C/C(Cl)=C/c3ccc([N+](=O)[O-])cc3)SC2=S)c1C |  |  | 3.25 µM |  | 6.76 µM | > 100 µM | 7 µM | > 100 µM |  |  |  |  | 1.42 µM |  | 2.37 µM | 3.85 µM | 2.37 µM | 2.9 µM | 0.404 µM | > 100 µM
Cn1c(COC(=O)NCCc2ccccn2)nc2c(N3CCOCC3)nc(Cl)nc21 | 3.22 µM | 4.75 µM | 2.39 µM | 3.11 µM | 2.84 µM | 3.81 µM | 3.47 µM | 16.1 µM | 1.53 µM | 6.36 µM | 1.13 µM | 1.8 µM | 0.899 µM | 1.52 µM | 1.48 µM | 1.88 µM | 1.7 µM | 3.97 µM |  | 
